Test: xn = mol fraction of the nth substance listed
Details: 100 kPa, Liquid

CC[NH+]=C(N(C)C)N(C)C.O=S(=O)([N-]S(=O)(=O)C(F)(F)F)C(F)(F)F + CCO
Details | mass density [kg/m3] | viscosity [mPa·s]
293.15 K, x1 = 0.1006 | 1023.01 | 2.873
293.15 K, x1 = 0.2004 | 1148.25 | 5.27
293.15 K, x1 = 0.3001 | 1225.91 | 8.21
293.15 K, x1 = 0.4005 | 1278.7 | 13.14
293.15 K, x1 = 0.5018 | 1316.97 | 19.52
293.15 K, x1 = 0.6011 | 1345.48 | 27.48
293.15 K, x1 = 0.6999 | 1367.71 | 36.42
293.15 K, x1 = 0.802 | 1386.71 | 47.47
293.15 K, x1 = 0.892 | 1400.66 | 59.17
293.15 K, x1 = 1 | 1414.89 | 74.61
298.15 K, x1 = 0.1006 | 1018.29 | 2.557
298.15 K, x1 = 0.2004 | 1143.37 | 4.596
298.15 K, x1 = 0.3001 | 1221.07 | 7.081
298.15 K, x1 = 0.4005 | 1273.82 | 11.13
298.15 K, x1 = 0.5018 | 1312.1 | 16.32
298.15 K, x1 = 0.6011 | 1340.6 | 22.71
298.15 K, x1 = 0.6999 | 1362.79 | 29.85
298.15 K, x1 = 0.802 | 1381.82 | 38.34
298.15 K, x1 = 0.892 | 1395.79 | 47.22
298.15 K, x1 = 1 | 1410.03 | 58.86
303.15 K, x1 = 0.1006 | 1013.56 | 2.289
303.15 K, x1 = 0.2004 | 1138.51 | 4.049
303.15 K, x1 = 0.3001 | 1216.29 | 6.157
303.15 K, x1 = 0.4005 | 1268.94 | 9.534
303.15 K, x1 = 0.5018 | 1307.24 | 13.8
303.15 K, x1 = 0.6011 | 1335.71 | 19.1
303.15 K, x1 = 0.6999 | 1357.94 | 24.85
303.15 K, x1 = 0.802 | 1376.95 | 31.52
303.15 K, x1 = 0.892 | 1390.94 | 38.37
303.15 K, x1 = 1 | 1405.19 | 47.27
308.15 K, x1 = 0.1006 | 1008.82 | 2.058
308.15 K, x1 = 0.2004 | 1133.65 | 3.587
308.15 K, x1 = 0.3001 | 1211.51 | 5.391
308.15 K, x1 = 0.4005 | 1264.09 | 8.252
308.15 K, x1 = 0.5018 | 1302.36 | 11.95
308.15 K, x1 = 0.6011 | 1330.83 | 16.25
308.15 K, x1 = 0.6999 | 1353.07 | 20.96
308.15 K, x1 = 0.802 | 1372.11 | 26.35
308.15 K, x1 = 0.892 | 1386.12 | 31.73
308.15 K, x1 = 1 | 1400.38 | 38.71
313.15 K, x1 = 0.1006 | 1004.07 | 1.861
313.15 K, x1 = 0.2004 | 1128.85 | 3.213
313.15 K, x1 = 0.3001 | 1206.71 | 4.757
313.15 K, x1 = 0.4005 | 1259.25 | 7.206
313.15 K, x1 = 0.5018 | 1297.45 | 10.32
313.15 K, x1 = 0.6011 | 1325.97 | 13.99
313.15 K, x1 = 0.6999 | 1348.22 | 17.94
313.15 K, x1 = 0.802 | 1367.28 | 22.3
313.15 K, x1 = 0.892 | 1381.31 | 26.65
313.15 K, x1 = 1 | 1395.59 | 32.2
318.15 K, x1 = 0.1006 | 999.26 | 1.689
318.15 K, x1 = 0.2004 | 1124.03 | 2.884
318.15 K, x1 = 0.3001 | 1201.81 | 4.227
318.15 K, x1 = 0.4005 | 1254.43 | 6.344
318.15 K, x1 = 0.5018 | 1292.57 | 8.977
318.15 K, x1 = 0.6011 | 1321.11 | 12.15
318.15 K, x1 = 0.6999 | 1343.4 | 15.52
318.15 K, x1 = 0.802 | 1362.45 | 19.11
318.15 K, x1 = 0.892 | 1376.52 | 22.55
318.15 K, x1 = 1 | 1390.8 | 27.09
323.15 K, x1 = 0.1006 | 994.44 | 1.515
323.15 K, x1 = 0.2004 | 1119.21 | 2.606
323.15 K, x1 = 0.3001 | 1197.01 | 3.78
323.15 K, x1 = 0.4005 | 1249.62 | 5.627
323.15 K, x1 = 0.5018 | 1287.74 | 7.837
323.15 K, x1 = 0.6011 | 1316.28 | 10.65
323.15 K, x1 = 0.6999 | 1338.59 | 13.58
323.15 K, x1 = 0.802 | 1357.63 | 16.54
323.15 K, x1 = 0.892 | 1371.74 | 19.32
323.15 K, x1 = 1 | 1386.03 | 23.14

CCOS(=O)(=O)[O-].CC[NH+]=C(N(C)C)N(C)C [2-ethyl-1,1,3,3-tetramethylguanidinium ethyl sulfate] + CCCO
Details | mass density [kg/m3] | viscosity [mPa·s]
293.15 K, x1 = 0.0997 | 898.6 | 4.426
293.15 K, x1 = 0.2003 | 964.92 | 8.127
293.15 K, x1 = 0.3066 | 1016.48 | 16.78
293.15 K, x1 = 0.3996 | 1051.52 | 27.09
293.15 K, x1 = 0.5016 | 1082.4 | 48.51
293.15 K, x1 = 0.5989 | 1106.32 | 82.64
293.15 K, x1 = 0.6984 | 1126.59 | 134.4
293.15 K, x1 = 0.7999 | 1144.02 | 243.1
293.15 K, x1 = 0.8981 | 1158.38 | 405.5
293.15 K, x1 = 1 | 1170.76 | 673.4
298.15 K, x1 = 0.0997 | 894.7 | 3.9
298.15 K, x1 = 0.2003 | 961.16 | 7.044
298.15 K, x1 = 0.3066 | 1012.78 | 13.97
298.15 K, x1 = 0.3996 | 1047.86 | 22.36
298.15 K, x1 = 0.5016 | 1078.78 | 38.84
298.15 K, x1 = 0.5989 | 1102.73 | 63.88
298.15 K, x1 = 0.6984 | 1123.01 | 100.3
298.15 K, x1 = 0.7999 | 1140.47 | 174.3
298.15 K, x1 = 0.8981 | 1154.86 | 278.2
298.15 K, x1 = 1 | 1167.24 | 441.5
303.15 K, x1 = 0.0997 | 890.9 | 3.455
303.15 K, x1 = 0.2003 | 957.41 | 6.152
303.15 K, x1 = 0.3066 | 1009.1 | 12.3
303.15 K, x1 = 0.3996 | 1044.26 | 18.74
303.15 K, x1 = 0.5016 | 1075.17 | 31.58
303.15 K, x1 = 0.5989 | 1099.15 | 50.4
303.15 K, x1 = 0.6984 | 1119.44 | 76.66
303.15 K, x1 = 0.7999 | 1136.93 | 128.5
303.15 K, x1 = 0.8981 | 1151.36 | 197.5
303.15 K, x1 = 1 | 1163.76 | 302.5
308.15 K, x1 = 0.0997 | 887.03 | 3.077
308.15 K, x1 = 0.2003 | 953.65 | 5.412
308.15 K, x1 = 0.3066 | 1005.42 | 10.72
308.15 K, x1 = 0.3996 | 1040.62 | 15.88
308.15 K, x1 = 0.5016 | 1071.58 | 26.07
308.15 K, x1 = 0.5989 | 1095.58 | 40.53
308.15 K, x1 = 0.6984 | 1115.89 | 59.78
308.15 K, x1 = 0.7999 | 1133.41 | 97.5
308.15 K, x1 = 0.8981 | 1147.85 | 145.3
308.15 K, x1 = 1 | 1160.28 | 214.6
313.15 K, x1 = 0.0997 | 883.16 | 2.751
313.15 K, x1 = 0.2003 | 949.88 | 4.79
313.15 K, x1 = 0.3066 | 1001.73 | 9.145
313.15 K, x1 = 0.3996 | 1036.98 | 13.59
313.15 K, x1 = 0.5016 | 1068 | 21.82
313.15 K, x1 = 0.5989 | 1092.03 | 33.1
313.15 K, x1 = 0.6984 | 1112.37 | 47.59
313.15 K, x1 = 0.7999 | 1129.9 | 75.47
313.15 K, x1 = 0.8981 | 1144.35 | 110
313.15 K, x1 = 1 | 1156.8 | 157.2
318.15 K, x1 = 0.0997 | 879.26 | 2.471
318.15 K, x1 = 0.2003 | 946.11 | 4.266
318.15 K, x1 = 0.3066 | 998.04 | 7.69
318.15 K, x1 = 0.3996 | 1033.37 | 11.73
318.15 K, x1 = 0.5016 | 1064.43 | 18.48
318.15 K, x1 = 0.5989 | 1088.5 | 27.42
318.15 K, x1 = 0.6984 | 1108.86 | 38.53
318.15 K, x1 = 0.7999 | 1126.4 | 59.7
318.15 K, x1 = 0.8981 | 1140.87 | 84.19
318.15 K, x1 = 1 | 1153.33 | 118.3
323.15 K, x1 = 0.0997 | 875.35 | 2.228
323.15 K, x1 = 0.2003 | 942.33 | 3.819
323.15 K, x1 = 0.3066 | 994.35 | 6.777
323.15 K, x1 = 0.3996 | 1029.73 | 10.2
323.15 K, x1 = 0.5016 | 1060.87 | 15.79
323.15 K, x1 = 0.5989 | 1084.97 | 23.01
323.15 K, x1 = 0.6984 | 1105.36 | 31.66
323.15 K, x1 = 0.7999 | 1122.93 | 47.99
323.15 K, x1 = 0.8981 | 1137.4 | 66.48
323.15 K, x1 = 1 | 1149.87 | 91.22

Source: the NIST ThermoML archive (doi:10.1021/acs.jced.5b00259)
